Experimental data from PubChem BioAssay AID330 (DTP/NCI, 2004).
“And” between values parts separate entries of the source, which are not always exact repeats. Identical values can stand only once. Toxic doses and inconclusive results are not listed. The calls were made as follows: active = survival T/C of 150% or more; inactive = T/C below 125% in these data. Peptide text beside a SMILES is read from it. * marks the point of attachment. Cbz = O=C(OCc1ccccc1)*; Bn = c1ccc(C*)cc1; NHNH2 = NN*

System: P388 leukemia ip, CD2F1 mice, survival T/C
Test: NCI In Vivo Anticancer Drug Screen. Data for tumor model P388 Leukemia (intraperitoneal) in CD2F1 (CDF1) mice
Conditions: endpoint: median survival time, higher = longer survival
Procedure, shortened: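 Mice carrying the transplanted tumor received test compound or vehicle. Survival was recorded in each group, and the value is the treated-group measurement divided by that of the vehicle-treated control group.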

[1] = dose: 50.0 mg/kg/injection, schedule: Q01DX009 (ip), vehicle: Klucel (hydroxypropylcellulose) (HPC)
[2] = dose: 100.0 mg/kg/injection, schedule: Q01DX009 (ip), vehicle: Klucel (hydroxypropylcellulose) (HPC)
[3] = dose: 100.0 mg/kg/injection, schedule: Q01DX009 (ip), vehicle: saline
[4] = dose: 50.0 mg/kg/injection, schedule: Q01DX009 (ip), vehicle: saline
[5] = dose: 200.0 mg/kg/injection, schedule: Q01DX009 (ip), vehicle: saline
[6] = dose: 60.0 mg/kg/injection, schedule: Q01DX005 (ip), vehicle: saline with Tween-80
[7] = dose: 120.0 mg/kg/injection, schedule: Q01DX005 (ip), vehicle: saline with Tween-80
[8] = dose: 240.0 mg/kg/injection, schedule: Q01DX005 (ip), vehicle: saline with Tween-80
[9] = dose: 200.0 mg/kg/injection, schedule: Q01DX009 (ip), vehicle: Klucel (hydroxypropylcellulose) (HPC)
[10] = dose: 50.0 mg/kg/injection, schedule: Q01DX005 (ip), vehicle: saline with Tween-80
[11] = dose: 100.0 mg/kg/injection, schedule: Q01DX005 (ip), vehicle: saline with Tween-80
[12] = dose: 200.0 mg/kg/injection, schedule: Q01DX005 (ip), vehicle: saline with Tween-80
[13] = dose: 25.0 mg/kg/injection, schedule: Q01DX005 (ip), vehicle: Klucel (hydroxypropylcellulose) (HPC)
[14] = dose: 50.0 mg/kg/injection, schedule: Q01DX005 (ip), vehicle: Klucel (hydroxypropylcellulose) (HPC)
[15] = dose: 60.0 mg/kg/injection, schedule: Q01DX005 (ip), vehicle: Klucel (hydroxypropylcellulose) (HPC)
[16] = dose: 120.0 mg/kg/injection, schedule: Q01DX005 (ip), vehicle: Klucel (hydroxypropylcellulose) (HPC)
[17] = dose: 240.0 mg/kg/injection, schedule: Q01DX005 (ip), vehicle: Klucel (hydroxypropylcellulose) (HPC)
[18] = dose: 100.0 mg/kg/injection, schedule: Q01DX005 (ip), vehicle: Klucel (hydroxypropylcellulose) (HPC)
[19] = dose: 200.0 mg/kg/injection, schedule: Q01DX005 (ip), vehicle: Klucel (hydroxypropylcellulose) (HPC)

Measured: T/C

CN1c2c(nc(N)[nH]c2=O)NCC1CCNc1ccc(C(=O)NC(CCC(=O)O)C(=O)O)cc1 (stereo not given)
inactive: dose: 25.0 mg/kg/injection, schedule: Q01DX009 (ip), vehicle: Klucel (hydroxypropylcellulose) (HPC) 115 % of control | [1] 115 % of control | dose: 75.0 mg/kg/injection, schedule: Q01DX005 (ip), vehicle: saline 100 % of control | dose: 75.0 mg/kg/injection, schedule: Q01DX005 (iv), vehicle: saline 100 % of control | dose: 75.0 mg/kg/injection, schedule: Q01DX009 (ip), vehicle: saline 105 % of control | dose: 75.0 mg/kg/injection, schedule: Q01DX009 (ip), vehicle: sodium bicarbonate 112 % of control | [2] 124 % of control | [3] 113 % of control | dose: 150.0 mg/kg/injection, schedule: Q01DX005 (ip), vehicle: saline 107 % of control | dose: 150.0 mg/kg/injection, schedule: Q01DX005 (iv), vehicle: saline 107 % of control | dose: 150.0 mg/kg/injection, schedule: Q01DX009 (ip), vehicle: saline 108 % of control | dose: 150.0 mg/kg/injection, schedule: Q01DX009 (ip), vehicle: sodium bicarbonate 114 % of control | dose: 300.0 mg/kg/injection, schedule: Q01DX005 (ip), vehicle: saline 109 % of control and 123 % of control | dose: 300.0 mg/kg/injection, schedule: Q01DX005 (iv), vehicle: saline 108 % of control and 113 % of control | dose: 300.0 mg/kg/injection, schedule: Q01DX009 (ip), vehicle: saline 116 % of control | dose: 300.0 mg/kg/injection, schedule: Q01DX009 (ip), vehicle: sodium bicarbonate 120 % of control | dose: 600.0 mg/kg/injection, schedule: Q01DX005 (ip), vehicle: saline 107 % of control and 118 % of control | dose: 600.0 mg/kg/injection, schedule: Q01DX005 (iv), vehicle: saline 104 % of control and 122 % of control | dose: 600.0 mg/kg/injection, schedule: Q01DX009 (ip), vehicle: saline 119 % of control | dose: 600.0 mg/kg/injection, schedule: Q01DX009 (ip), vehicle: sodium bicarbonate 122 % of control | dose: 800.0 mg/kg/injection, schedule: Q01DX009 (ip), vehicle: Klucel (hydroxypropylcellulose) (HPC) 99 % of control

CC(=O)c1c(O)c2ccccc2c2nc3ccccc3nc12
inactive: [4] 96 % of control | [3] 91 % of control | [5] 91 % of control

Cc1ccc(-n2c(CSc3ccc(Cl)cc3)nnc2SCc2nc3ccccc3[nH]2)cc1
inactive: dose: 15.0 mg/kg/injection, schedule: Q01DX005 (ip), vehicle: saline with Tween-80 92 % of control | dose: 30.0 mg/kg/injection, schedule: Q01DX005 (ip), vehicle: saline with Tween-80 102 % of control | [6] 96 % of control and 98 % of control

O=C1CSCc2sccc21
inactive: [6] 94 % of control | [7] 106 % of control | [8] 101 % of control

COc1ccc(CCN2C(=O)C(=O)N(C(C)C)C2=O)cc1OC
inactive: [1] 86 % of control | [2] 91 % of control | [9] 95 % of control

c1ccc2nc(C[n+]3cccc4ccccc43)ccc2c1
inactive: dose: 3.12 mg/kg/injection, schedule: Q01DX005 (ip), vehicle: saline 105 % of control | dose: 6.25 mg/kg/injection, schedule: Q01DX005 (ip), vehicle: saline 106 % of control | dose: 12.5 mg/kg/injection, schedule: Q01DX005 (ip), vehicle: saline 109 % of control

NNC(=O)C(Cc1ccc(O)cc1)NC(=O)C(CSCc1ccccc1)NC(=O)OCc1ccccc1 (stereo not given) (Cbz-Cys(Bn)-Tyr-NHNH2; configuration not given here)
inactive: [1] 93 % of control | [2] 91 % of control | [9] 89 % of control

N#C/C=C1\C=CC(O)C(O)C1OC1OC(CO)C(O)C(O)C1O (stereo not given)
inactive: dose: 6.0 mg/kg/injection, schedule: Q01DX009 (ip), vehicle: saline 103 % of control | dose: 12.0 mg/kg/injection, schedule: Q01DX009 (ip), vehicle: saline 103 % of control | dose: 24.0 mg/kg/injection, schedule: Q01DX009 (ip), vehicle: saline 100 % of control | dose: 48.0 mg/kg/injection, schedule: Q01DX009 (ip), vehicle: saline 105 % of control

C[N+]1(C)C2CCC1CC(=O)C2
inactive: dose: 12.5 mg/kg/injection, schedule: Q01DX009 (ip), vehicle: suspension in saline 107 % of control | dose: 25.0 mg/kg/injection, schedule: Q01DX009 (ip), vehicle: suspension in saline 107 % of control

Nc1cc(-c2ccc(Cl)cc2)nn1-c1nnc(-c2ccccc2)c(-c2ccccc2)n1
inactive: [10] 93 % of control | [11] 100 % of control | [12] 103 % of control

O=C1c2c(c(Cl)c3ccccc3c2O)C(=O)C2C3C=CC(C3)C12 (stereo not given)
inactive: [10] 96 % of control | [11] 89 % of control | [12] 89 % of control

c1cc(CSC2=NCCN2)c2cccc(CSC3=NCCN3)c2c1
inactive: dose: 12.5 mg/kg/injection, schedule: Q01DX005 (ip), vehicle: Klucel (hydroxypropylcellulose) (HPC) 103 % of control | [13] 107 % of control | [14] 103 % of control and 112 % of control

CCOc1c(N=Nc2ccccc2OC)c(C)nn1C(=S)S
inactive: [15] 102 % of control | [16] 114 % of control | [17] 105 % of control

Cc1ccc(/C2=C(\c3ccc(C)cc3)N(c3ccc(C)cc3)CCCCN2c2ccc(C)cc2)cc1
inactive: dose: 100.0 mg/kg/injection, schedule: Q01DX001 (ip), vehicle: Klucel (hydroxypropylcellulose) (HPC) 92 % of control | dose: 200.0 mg/kg/injection, schedule: Q01DX001 (ip), vehicle: Klucel (hydroxypropylcellulose) (HPC) 87 % of control | dose: 400.0 mg/kg/injection, schedule: Q01DX001 (ip), vehicle: Klucel (hydroxypropylcellulose) (HPC) 92 % of control

CC(=O)N1C(=O)c2ccccc2NC1(C)c1ccncc1 (stereo not given)
inactive: [13] 100 % of control | [14] 101 % of control | [18] 107 % of control | [19] 106 % of control

CN1N=C(N)c2cn(C3OC(COP(=O)(O)O)C(O)C3O)c3ncnc1c23 (stereo not given)
inactive: dose: 6.25 mg/kg/injection, schedule: Q01DX009 (ip), vehicle: water 124 % of control | dose: 20.0 mg/kg/injection, schedule: Q01DX005 (ip), vehicle: saline 122 % of control | dose: 38.0 mg/kg/injection, schedule: Q01DX005 (ip), vehicle: water 124 % of control

Clc1cccc2c(SCCCCCSc3c4ccccc4nc4c(Cl)cccc34)c3ccccc3nc12
inactive: [15] 93 % of control | [16] 93 % of control | [17] 87 % of control

CC(=Nc1ccccc1)C1=C(O)C(Cc2ccccc2)NC1=O (stereo not given)
inactive: dose: 25.0 mg/kg/injection, schedule: Q01DX009 (ip), vehicle: saline with Tween-80 106 % of control

COC1(OC)C(=S)N(C(C)C)C(=S)N1C(C)C
inactive: [14] 100 % of control | [18] 96 % of control | [19] 100 % of control

Cc1cc2c(cc1C)C(=O)c1cc3c(cc1C2=O)OCO3
inactive: [6] 94 % of control | [7] 91 % of control | [8] 89 % of control

Cc1c(C)c(C)c(S(=O)(=O)NCCNS(=O)(=O)c2c(C)c(C)c(C)c(C)c2C)c(C)c1C
inactive: [14] 103 % of control | [18] 94 % of control | [19] 93 % of control

CCOC(=O)c1cc(-c2cc(C(=O)OCC)c3ccccc3n2)nc2ccccc12
inactive: dose: 6.25 mg/kg/injection, schedule: Q01DX005 (ip), vehicle: saline with Tween-80 96 % of control | dose: 12.5 mg/kg/injection, schedule: Q01DX005 (ip), vehicle: saline with Tween-80 95 % of control | dose: 25.0 mg/kg/injection, schedule: Q01DX005 (ip), vehicle: saline with Tween-80 100 % of control | [11] 86 % of control

CCOC(=O)C(C)(C)Oc1ccc(N=[N+]=[N-])cc1
inactive: [6] 100 % of control | [7] 104 % of control | [8] 109 % of control

O=C(O)CS(=O)(=O)CCS(=O)(=O)CC(=O)O
inactive: [4] 107 % of control | [3] 105 % of control | [5] 88 % of control
